Here are results for 1 compound from patent US20100166772A1, “ANTIGEN-BINDING PROTEINS TARGETING S. AUREUS ORF0657n” (priority 2007, published 2010).

Molecules are shown by their SMILES. Values joined by “and” are separate entries in the source; they are usually repeats but may differ in a detail not shown here. Identical values can stand only once.

For this assay, the system named is S. aureus Becker. The assay is described as follows: Combination treatment vancomycin and mAb in cannulated rats, catheter bacteria load. Type of assay: in vivo. As to conditions: for Catheter CFU Exp#1 / Catheter CFU Exp#2: 24 hours. The method, then: Cannulated rats were given vancomycin (20 mpk) sub. cu. at 1 hour (1 H) prior to iv challenge with 2−4×10^9 CFU of S. aureus Becker. At 1 H post challenge, the rats were injected with 6 mg/rat of either the mAb CS-D6, an isotype control mAb 20C2HA, or PBS. At 24 hours post challenge, the animals were sacrificed, the jugular vein catheters harvested and evaluated for the bacteria load on the catheter. Evaluation of catheters was performed by placement in selective broth medium, and outgrowth on the Piccolo incubation system. Outgrowth was compared to standard curves of S. aureus growth under the same conditions to calculate the number of CFU on the experimental catheters. In the first set of experiments (Table 15), small numbers of animals were used to test the system. In the second set of experiments (Table 16), larger numbers of rats were used. […] This model was designed to simulate a clinical situation in which a patient is undergoing surgery or other invasive procedure, and getting an empiric or prophylactic antibiotic. In the model, the mAb was injected after bacteria exposure, simulating adjunctive mAb treatment for infection during surgery.

The mark [1] stands for this setting: Table 15, individual rats, vancomycin 20 mpk sub. cu. 1 H prior, 6 mg/rat mAb 1 H post challenge.
[2] abbreviates: Table 16, individual rats, larger numbers of rats, vancomycin 20 mpk, 6 mg/rat mAb.

As to `CN[C@H](CC(C)C)C(=O)N[C@H]1C(=O)N[C@@H](CC(N)=O)C(=O)N[C@H]2C(=O)N[C@H]3C(=O)N[C@H](C(=O)N[C@H](C(=O)O)c4cc(O)cc(O)c4-c4cc3ccc4O)[C@H](O)c3ccc(c(Cl)c3)Oc3cc2cc(c3O[C@@H]2O[C@H](CO)[C@@H](O)[C@H](O)[C@H]2O[C@H]2C[C@](C)(N)[C@H](O)[C@H](C)O2)Oc2ccc(cc2Cl)[C@H]1O` [Vancomycin + PBS, vancomycin], the “Catheter CFU Exp#1” value is 0 CFU and 38,725,264 CFU under setting [1]; 64 CFU and 309 CFU and 973 CFU and 5,015 CFU and 5,108 CFU and 7,353,005 CFU under setting [2]. The “Catheter CFU Exp#2” value under setting [1] was 0 CFU (3×) and 217 CFU; the “Catheter CFU Exp#2” value under setting [2] is 0 CFU and 63 CFU (2×) and 291 CFU and 6,517,926 CFU and 7,829,527 CFU. In addition, the “Catheter CFU Geo mean” value is on record as 3,368 CFU (Table 16, catheters with no outgrowth assigned value of 10) and 45 CFU (in vivo).
